Source: PubChem BioAssay AID328 (DTP/NCI, 2004)
“And” between values parts separate entries of the source, which are not always exact repeats. Equal values may be shown once. Inconclusive results and toxic doses are left out. How the source made its calls: active means survival T/C of 150% or more; inactive means T/C below 125% in these data.

System: BDF1 mice, P388 leukemia ip, median survival T/C
Assay: NCI In Vivo Anticancer Drug Screen. Data for tumor model P388 Leukemia (intraperitoneal) in B6D2F1 (BDF1) mice
Details: endpoint: median survival time, higher = longer survival
Method in brief: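 Survival ratio, drug arm over vehicle arm, in mice with a transplanted tumour.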

[1] = dose: 100.0 mg/kg/injection, schedule: Q01DX009 (ip), vehicle: water
[2] = dose: 50.0 mg/kg/injection, schedule: Q01DX009 (ip), vehicle: saline with Tween-80
[3] = dose: 100.0 mg/kg/injection, schedule: Q01DX009 (ip), vehicle: saline with Tween-80
[4] = dose: 200.0 mg/kg/injection, schedule: Q01DX009 (ip), vehicle: saline with Tween-80
[5] = dose: 400.0 mg/kg/injection, schedule: Q01DX009 (ip), vehicle: saline with Tween-80
[6] = dose: 25.0 mg/kg/injection, schedule: Q01DX009 (ip), vehicle: Klucel (hydroxypropylcellulose) (HPC)
[7] = dose: 50.0 mg/kg/injection, schedule: Q01DX009 (ip), vehicle: Klucel (hydroxypropylcellulose) (HPC)
[8] = dose: 12.5 mg/kg/injection, schedule: Q01DX009 (ip), vehicle: Klucel (hydroxypropylcellulose) (HPC)
[9] = dose: 100.0 mg/kg/injection, schedule: Q01DX009 (ip), vehicle: saline
[10] = dose: 200.0 mg/kg/injection, schedule: Q01DX009 (ip), vehicle: saline
[11] = dose: 400.0 mg/kg/injection, schedule: Q01DX009 (ip), vehicle: saline
[12] = dose: 100.0 mg/kg/injection, schedule: Q04DX003 (ip), vehicle: saline with Tween-80
[13] = dose: 200.0 mg/kg/injection, schedule: Q04DX003 (ip), vehicle: saline with Tween-80
[14] = dose: 400.0 mg/kg/injection, schedule: Q04DX003 (ip), vehicle: saline with Tween-80
[15] = dose: 100.0 mg/kg/injection, schedule: Q01DX009 (ip), vehicle: Klucel (hydroxypropylcellulose) (HPC)
[16] = dose: 400.0 mg/kg/injection, schedule: Q01DX009 (ip), vehicle: Klucel (hydroxypropylcellulose) (HPC)

Measured: T/C

CCSc1ncc(C)c(Cl)n1
inactive: [1] 107 % of control | dose: 100.0 mg/kg/injection, schedule: Q04DX003 (ip), vehicle: water 105 % of control | dose: 200.0 mg/kg/injection, schedule: Q01DX009 (ip), vehicle: water 99 % of control | dose: 200.0 mg/kg/injection, schedule: Q04DX003 (ip), vehicle: water 107 % of control | dose: 400.0 mg/kg/injection, schedule: Q01DX009 (ip), vehicle: water 108 % of control | dose: 400.0 mg/kg/injection, schedule: Q04DX003 (ip), vehicle: water 103 % of control

NC(N)=NC(N)=Nc1ccc(Cl)c(Cl)c1
inactive: dose: 25.0 mg/kg/injection, schedule: Q01DX009 (ip), vehicle: saline with Tween-80 98 % of control | [2] 121 % of control

CC1(C)COC(C)(C(=O)NN)OC1
inactive: dose: 100.0 mg/kg/injection, schedule: Q04DX002 (ip), vehicle: saline 104 % of control | dose: 200.0 mg/kg/injection, schedule: Q04DX002 (ip), vehicle: saline 101 % of control | dose: 400.0 mg/kg/injection, schedule: Q04DX002 (ip), vehicle: saline 92 % of control

O=C1C=CC(=O)c2c(O)c(CBr)c(CBr)c(O)c21
inactive: dose: 3.12 mg/kg/injection, schedule: Q01DX009 (ip), vehicle: water 96 % of control | dose: 6.25 mg/kg/injection, schedule: Q01DX009 (ip), vehicle: water 118 % of control | dose: 6.25 mg/kg/injection, schedule: Q04DX003 (ip), vehicle: water 105 % of control | dose: 12.5 mg/kg/injection, schedule: Q01DX009 (ip), vehicle: water 108 % of control | dose: 12.5 mg/kg/injection, schedule: Q04DX003 (ip), vehicle: water 105 % of control | dose: 25.0 mg/kg/injection, schedule: Q01DX009 (ip), vehicle: water 118 % of control | dose: 25.0 mg/kg/injection, schedule: Q04DX003 (ip), vehicle: water 100 % of control | dose: 50.0 mg/kg/injection, schedule: Q01DX009 (ip), vehicle: water 112 % of control | dose: 50.0 mg/kg/injection, schedule: Q04DX003 (ip), vehicle: water 107 % of control | [1] 105 % of control

CCC(=O)/C=C/c1ccc(Cl)cc1
inactive: [2] 110 % of control | [3] 109 % of control | [4] 107 % of control

CN(/N=N/N(C)c1ccccc1)c1ccccc1
inactive: dose: 100.0 mg/kg/injection, schedule: Q04DX003 (ip), vehicle: saline sonified 110 % of control | [4] 120 % of control | dose: 200.0 mg/kg/injection, schedule: Q04DX003 (ip), vehicle: saline sonified 110 % of control | [5] 110 % of control | dose: 400.0 mg/kg/injection, schedule: Q04DX003 (ip), vehicle: saline sonified 100 % of control

O=C(/C(=C\c1ccccc1)CN1CCOCC1)c1ccc(Br)cc1
inactive: [6] 104 % of control | dose: 37.5 mg/kg/injection, schedule: Q04DX003 (ip), vehicle: Klucel (hydroxypropylcellulose) (HPC) 108 % of control | [7] 108 % of control | dose: 75.0 mg/kg/injection, schedule: Q04DX003 (ip), vehicle: Klucel (hydroxypropylcellulose) (HPC) 104 % of control | dose: 150.0 mg/kg/injection, schedule: Q04DX003 (ip), vehicle: Klucel (hydroxypropylcellulose) (HPC) 108 % of control

Clc1c(CBr)c(Cl)c(CBr)c(Cl)c1CBr
inactive: [8] 113 % of control | [6] 122 % of control

C=C(C)C(=O)OC1CCCCC1
inactive: [9] 111 % of control | [10] 100 % of control | [11] 117 % of control

CN1CCN(CCOC(=O)N2c3ccccc3Sc3ccccc32)CC1
inactive: [8] 100 % of control | [6] 105 % of control | [7] 100 % of control

O=C(O)CN(CCN(CC(=O)O)CC(=O)O)CC(=O)O
inactive: dose: 25.0 mg/kg/injection, schedule: Q01DX010 (ip), vehicle: saline 100 % of control | dose: 50.0 mg/kg/injection, schedule: Q01DX010 (ip), vehicle: saline 91 % of control | dose: 200.0 mg/kg/injection, schedule: Q01DX010 (ip), vehicle: saline 95 % of control

CCCCCCCCCCCCCCC(F)C(=O)OC (stereo unspecified)
inactive: dose: 25.0 mg/kg/injection, schedule: Q01DX009 (sc), vehicle: olive oil, sesame oil, peanut oil 95 % of control | dose: 50.0 mg/kg/injection, schedule: Q01DX009 (sc), vehicle: olive oil, sesame oil, peanut oil 86 % of control | dose: 50.0 mg/kg/injection, schedule: Q04DX003 (sc), vehicle: olive oil, sesame oil, peanut oil 91 % of control | dose: 100.0 mg/kg/injection, schedule: Q01DX009 (sc), vehicle: olive oil, sesame oil, peanut oil 100 % of control | dose: 100.0 mg/kg/injection, schedule: Q04DX003 (sc), vehicle: olive oil, sesame oil, peanut oil 91 % of control

O=CN(O)CC(=O)O.[Zn]
inactive: dose: 4.12 mg/kg/injection, schedule: Q01DX009 (ip), vehicle: saline 118 % of control and 122 % of control | dose: 6.25 mg/kg/injection, schedule: Q01DX009 (ip), vehicle: saline 118 % of control and 122 % of control | dose: 8.7 mg/kg/injection, schedule: Q04DX003 (ip), vehicle: saline 104 % of control | dose: 9.37 mg/kg/injection, schedule: Q01DX009 (ip), vehicle: saline 118 % of control | dose: 13.0 mg/kg/injection, schedule: Q04DX003 (ip), vehicle: saline 113 % of control | dose: 19.5 mg/kg/injection, schedule: Q04DX003 (ip), vehicle: saline 113 % of control | dose: 30.0 mg/kg/injection, schedule: Q04DX003 (ip), vehicle: saline 118 % of control

COc1ccc(C2(C(=O)O)CC2)cc1
inactive: [3] 111 % of control | [12] 109 % of control | [4] 100 % of control | [13] 109 % of control | [5] 96 % of control | [14] 113 % of control

CCOC(=O)C1CCCNC1 (stereo unspecified)
inactive: [9] 104 % of control | dose: 100.0 mg/kg/injection, schedule: Q04DX003 (ip), vehicle: saline 95 % of control | [10] 100 % of control | dose: 200.0 mg/kg/injection, schedule: Q04DX003 (ip), vehicle: saline 91 % of control | [11] 112 % of control | dose: 400.0 mg/kg/injection, schedule: Q04DX003 (ip), vehicle: saline 87 % of control

Cc1ccc(-c2nn3c(-c4ccccc4)nnc3o2)cc1
inactive: [12] 110 % of control | [13] 115 % of control | [14] 105 % of control

C=C(C)[C@@H]1CC[C@]2(C)CC[C@]3(C)[C@H](CC[C@@H]4[C@@]5(C)CC[C@H](O)C(C)(C)[C@@H]5CC[C@]43C)[C@@H]12
inactive: [7] 93 % of control | [15] 101 % of control | dose: 200.0 mg/kg/injection, schedule: Q01DX009 (ip), vehicle: Klucel (hydroxypropylcellulose) (HPC) 105 % of control | [16] 97 % of control

O=C1c2ccccc2C(=O)N1N(c1ccccc1)c1ccccc1
inactive: [15] 104 % of control | dose: 100.0 mg/kg/injection, schedule: Q04DX003 (ip), vehicle: Klucel (hydroxypropylcellulose) (HPC) 110 % of control | dose: 200.0 mg/kg/injection, schedule: Q04DX003 (ip), vehicle: Klucel (hydroxypropylcellulose) (HPC) 120 % of control | [16] 100 % of control | dose: 400.0 mg/kg/injection, schedule: Q04DX003 (ip), vehicle: Klucel (hydroxypropylcellulose) (HPC) 105 % of control
